In US20210401827A1 (priority 2018, published 2021):
Read-outs that look alike come from different tables or passages of the source.

Experiments:
[1] = human, in vivo
[2] = in vivo; cited from earlier work
[3] = human, in vivo; remark: listed apart in the source

| Compound | Lambda z [1] | AUCextrap ([1]; im, 1.5 mg) | Cmax/D ([1]; im, 1.5 mg) | adverse events with an incidence less than 1% [2] | common adverse reactions with an incidence greater than 1% [2] | λz [3] | AUCextrap ([3]; im, 2 mg) | Cmax/Dose ([3]; im, 2 mg) |
| --- | --- | --- | --- | --- | --- | --- | --- | --- |
| C=C1CC[C@@]2(O)[C@H]3Cc4ccc(O)c5c4[C@@]2(CCN3CC2CC2)[C@H]1O5 [Nalmefene, 17-cyclopropylmethyl-4,5α-epoxy-6-methylenemorphinan-3,14-diol] | 0.094 h⁻¹ | 22.6% | 1.12 ng/mL/mg | bradycardia, arrhythmia, diarrhea, dry mouth, somnolence, depression, agitation, nervousness, tremor, confusion, withdrawal syndrome, myoclonus, pharyngitis, pruritus, and urinary retention | nausea, vomiting, tachycardia, hypertension, postoperative pain, fever, dizziness, headache, chills, hypotension, and vasodilation |  |  |  |
| O=C1CC[C@@]2(O)[C@H]3Cc4ccc(O)c5c4[C@@]2(CCN3CC2CC2)[C@H]1O5 [Naltrexone, 17-(cyclopropylmethyl)-4,5α-epoxy-3,14-dihydroxymorphinan-6-one] |  |  |  |  |  | 0.361 h⁻¹ | 1.01% | 2.27 ng/mL/mg |
